{
  "source": "paper PMC2477761",
  "about": "“D-glucose Stimulates the Na^+/K^+ Pump in Mouse Pancreatic Islet Cells” (International journal of experimental diabetes research, 2000)",
  "test_system": "T1, Na+/K+ ATPase (islet homogenate, ob/ob mice)",
  "T1 construct": "gene Atp1a1",
  "conditions": "read-out: apparent K 0.5; 135 mM Na+, 20 mM K+, Mg2+, pH 7.4, 37 C, 10 min; deoxycholate-treated homogenate; 1 mM ouabain difference",
  "data": [
    {"smiles": "Nc1ncnc2c1ncn2[C@@H]1O[C@H](COP(=O)(O)OP(=O)(O)OP(=O)(O)O)[C@@H](O)[C@H]1O", "note": "[ATP]", "values": [
      {"measurement": "Km", "value": 500, "unit": "µM"}
    ]}
  ]
}
